Biological target: T1, MMP-13 (Homo sapiens, UniProt P45452)
T1 construct: purchased Reaction Biology Corporation, Malvern, PA, USA (contract assay service)
Experiment: MMP-13 in vitro inhibition assay (FRET peptide substrate)
Type: biochemical
Details: for LE (Ligand Efficiency): 1.4(−logIC50)/N, N = number of non-hydrogen atoms; for LLE (lipophilic ligand efficiency): LLE = pIC50 - clogP; for remaining activity at 10 µM: at 10 μM inhibitor concentration, read-out: % Activity (remaining enzyme activity); for remaining activity at 10 µM / IC50: triplicate; for IC50: 10 concentrations starting at 10 μM
Procedure: Consecutively the synthesized compounds were tested for their inhibition activity against MMP-13 in in vitro assays. The values are averaged over triplicate determinations (Table 1).
The substrate used for the determinations was the (5-FAM/QXLTM) FRET peptide. The buffer consisted of 50 mM HEPES at pH 7.5 with 10 mM CaCl2 and 0.01% Brij-35. 0.1 mg/mL BSA was added before use. As a control inhibitor GM6001 was used.

Row | LE (Ligand Efficiency) | LLE (lipophilic ligand efficiency) | remaining activity at 10 µM [%] | IC50 [nM] | SMILES
1 | 0.24 | 1.53 | 9.1 ± 0.9 | 822 ± 210 | O=C(Cc1cccc(OCCCCCO)c1)Nc1ccc2c(c1)C(=O)N(Cc1ccccc1)C2=O [Compound 2, N-(2-benzyl-1,3-dioxo-2,3-dihydro-1H-isoindol-5-yl)-2-{3-[(5-hydroxypentyl)oxy]phenyl}acetamide]
2 | 0.27 | 2.46 | 2.4 ± 0.1 | 134 ± 40 | O=C(O)CCCCOc1cccc(CC(=O)Nc2ccc3c(c2)C(=O)N(Cc2ccccc2)C3=O)c1 [Compound 3, 5-(3-{[(2-benzyl-1,3-dioxo-2,3-dihydro-1H-isoindol-5-yl)carbamoyl]methyl}phenoxy)pentanoic acid]
3 | 0.21 | 2.53 | 13.8 ± 1.4 | 767 ± 80 | CS(=O)(=O)NC(=O)CCCCOc1cccc(CC(=O)Nc2ccc3c(c2)C(=O)N(Cc2ccccc2)C3=O)c1 [Compound 4, 5-(3-{[(2-benzyl-1,3-dioxo-2,3-dihydro-1H-isoindol-5-yl)carbamoyl]methyl}phenoxy)-N-methanesulfonylpentanamide]
4 | 0.25 | 2.45 | 6.7 ± 0.5 | 328 ± 50 | CNC(=O)CCCCOc1cccc(CC(=O)Nc2ccc3c(c2)C(=O)N(Cc2ccccc2)C3=O)c1 [Compound 5, 5-(3-{[(2-benzyl-1,3-dioxo-2,3-dihydro-1H-isoindol-5-yl)carbamoyl]methyl}phenoxy)-N-methylpentanamide]
5 | 0.26 | 2.55 | 7.9 ± 0.4 | 586 ± 130 | O=C(Cc1cccc(OCCCO)c1)Nc1ccc2c(c1)C(=O)N(Cc1ccccc1)C2=O [Compound 11, N-(2-benzyl-1,3-dioxo-2,3-dihydro-1H-isoindol-5-yl)-2-[3-(3-hydroxypropoxy)phenyl]acetamide]
6 | – | – | 33 ± 2.9 | – | O=C(Cc1cccc(OCCCCCCO)c1)Nc1ccc2c(c1)C(=O)N(Cc1ccccc1)C2=O [Compound 13, N-(2-benzyl-1,3-dioxo-2,3-dihydro-1H-isoindol-5-yl)-2-{3-[(6-hydroxyhexyl)oxy]phenyl}acetamide]
7 | – | – | 15.4 ± 0.3 | – | O=C(O)CCOc1cccc(CC(=O)Nc2ccc3c(c2)C(=O)N(Cc2ccccc2)C3=O)c1 [Compound 14, 3-(3-{[(2-benzyl-1,3-dioxo-2,3-dihydro-1H-isoindol-5-yl)carbamoyl]methyl}phenoxy)propanoic acid]
8 | 0.24 | 2.16 | 4.6 ± 0.6 | 777 ± 50 | O=C(O)CCCOc1cccc(CC(=O)Nc2ccc3c(c2)C(=O)N(Cc2ccccc2)C3=O)c1 [Compound 15, 4-(3-{[(2-benzyl-1,3-dioxo-2,3-dihydro-1H-isoindol-5-yl)carbamoyl]methyl}phenoxy)butanoic acid]
9 | 0.25 | 1.70 | 2.6 ± 0.3 | 280 ± 40 | O=C(O)CCCCCOc1cccc(CC(=O)Nc2ccc3c(c2)C(=O)N(Cc2ccccc2)C3=O)c1 [Compound 16, 6-(3-{[(2-benzyl-1,3-dioxo-2,3-dihydro-1H-isoindol-5-yl)carbamoyl]methyl}phenoxy)hexanoic acid]
10 | – | – | 30.5 ± 0.8 | – | CS(=O)(=O)NC(=O)CCOc1cccc(CC(=O)Nc2ccc3c(c2)C(=O)N(Cc2ccccc2)C3=O)c1 [Compound 17, 3-(3-{[(2-benzyl-1,3-dioxo-2,3-dihydro-1H-isoindol-5-yl)carbamoyl]methyl}phenoxy)-N-methanesulfonylpropanamide]
11 | 0.22 | 2.91 | 11.2 ± 0.3 | 896 ± 60 | CS(=O)(=O)NC(=O)CCCOc1cccc(CC(=O)Nc2ccc3c(c2)C(=O)N(Cc2ccccc2)C3=O)c1 [Compound 18, 4-(3-{[(2-benzyl-1,3-dioxo-2,3-dihydro-1H-isoindol-5-yl)carbamoyl]methyl}phenoxy)-N-methanesulfonylbutanamide]

Row | SMILES | LE (Ligand Efficiency) | LLE (lipophilic ligand efficiency) | remaining activity at 10 µM [%] | IC50 [nM]
12 | O=C(Cc1cccc(OCCCCO)c1)Nc1ccc2c(c1)C(=O)N(Cc1ccccc1)C2=O [Compound 12, N-(2-benzyl-1,3-dioxo-2,3-dihydro-1H-isoindol-5-yl)-2-[3-(4-hydroxybutoxy)phenyl]acetamide] | 0.26 | 2.22 | 7.6 ± 0.5 | 454 ± 200

Source: article PMC4813177, “Molecular Recognition of the Catalytic Zinc(II) Ion in MMP-13: Structure-Based Evolution of an Allosteric Inhibitor to Dual Binding Mode Inhibitors with Improved Lipophilic Ligand Efficiencies” (International Journal of Molecular Sciences, 2016)
